Experimental data published in ChEMBL document CHEMBL1240358, “Activity of a new antipseudomonal cephalosporin, CXA-101 (FR264205), against carbapenem-resistant and multidrug-resistant Pseudomonas aeruginosa clinical strains” (2010).
In brackets after ≈: the same amount, converted by molar mass.

Columns and labels:
Format in all cases: functional
[1] = system: Pseudomonas aeruginosa; test: Antibacterial activity against carbapenem-resistant Pseudomonas aeruginosa isolate 3C9 GM1 harboring acquired beta-lactamase OXA-144 by broth microdilution method
[2] = system: Pseudomonas aeruginosa; test: Antibacterial activity against carbapenem-resistant Pseudomonas aeruginosa isolate 1D5 SA1 harboring acquired beta-lactamase VIM-2 by broth microdilution method
[3] = system: Pseudomonas aeruginosa; test: Antibacterial activity against Pseudomonas aeruginosa assessed as percent nonsusceptible isolates by broth microdilution assay
[4] = system: Pseudomonas aeruginosa; test: Antibacterial activity against Pseudomonas aeruginosa PAO1 harboring acquired beta-lactamase OXA-2 by broth microdilution method
[5] = system: Pseudomonas aeruginosa; test: Antibacterial activity against carbapenem-resistant Pseudomonas aeruginosa isolate 1E2 PpA1 harboring acquired beta-lactamase OXA-144 by broth microdilution method
[6] = system: Pseudomonas aeruginosa; test: Antibacterial activity against carbapenem-resistant Pseudomonas aeruginosa isolate 3C1 VAL6 by broth microdilution method
[7] = system: Pseudomonas aeruginosa; test: Antibacterial activity against Pseudomonas aeruginosa PAO1 harboring acquired beta-lactamase OXA-144 by broth microdilution method
[8] = system: Pseudomonas aeruginosa; test: Antibacterial activity against carbapenem-resistant Pseudomonas aeruginosa isolate 1E3 PpA2 harboring acquired beta-lactamase OXA-101 by broth microdilution method
[9] = system: Pseudomonas aeruginosa; test: Antibacterial activity against carbapenem-resistant Pseudomonas aeruginosa isolate 3D2 GM2 harboring acquired beta-lactamase BEL-3 by broth microdilution method
[10] = system: Pseudomonas aeruginosa; test: Antibacterial activity against carbapenem-resistant Pseudomonas aeruginosa isolate 3C8 GM1 harboring acquired beta-lactamase OXA-144 by broth microdilution method
[11] = system: Pseudomonas aeruginosa; test: Antibacterial activity against carbapenem-resistant Pseudomonas aeruginosa isolate 1E1 PpA1 harboring acquired beta-lactamase OXA-144 by broth microdilution method
[12] = system: Pseudomonas aeruginosa; test: Antibacterial activity against carbapenem-resistant Pseudomonas aeruginosa isolate 1C3 PTOL1 harboring acquired beta-lactamase OXA-17 by broth microdilution method
[13] = system: Pseudomonas aeruginosa; test: Antibacterial activity against carbapenem-resistant Pseudomonas aeruginosa isolate 1C2 PTOL1 harboring beta-lactamase OXA-17 by broth microdilution method
[14] = system: Pseudomonas aeruginosa; test: Antibacterial activity against Pseudomonas aeruginosa PAO1 by broth microdilution method
[15] = system: Pseudomonas aeruginosa; test: Antibacterial activity against carbapenem-resistant Pseudomonas aeruginosa isolate 1B2 RCA2 harboring acquired beta-lactamase PER-1 by broth microdilution method
[16] = system: Pseudomonas aeruginosa; test: Antibacterial activity against gentamicin-susceptible Pseudomonas aeruginosa by broth microdilution method
[17] = system: Pseudomonas aeruginosa; test: Antibacterial activity against non-multidrug-resistant Pseudomonas aeruginosa by broth microdilution method
[18] = system: Pseudomonas aeruginosa; test: Antibacterial activity against gentamicin-resistant Pseudomonas aeruginosa by broth microdilution method
[19] = system: Pseudomonas aeruginosa; test: Antibacterial activity against multidrug-resistant Pseudomonas aeruginosa isolated from patient with cystic fibrosis
[20] = system: Pseudomonas aeruginosa; test: Antibacterial activity against meropenem-susceptible Pseudomonas aeruginosa by broth microdilution method
[21] = system: Pseudomonas aeruginosa; test: Antibacterial activity against piperacillin-susceptible Pseudomonas aeruginosa by broth microdilution method
[22] = system: Pseudomonas aeruginosa; test: Antibacterial activity against imipenem-susceptible Pseudomonas aeruginosa by broth microdilution method
[23] = system: Pseudomonas aeruginosa; test: Antibacterial activity against multidrug-resistant Pseudomonas aeruginosa by broth microdilution method
[24] = system: Pseudomonas aeruginosa; test: Antibacterial activity against ceftazidime-susceptible Pseudomonas aeruginosa by broth microdilution method
[25] = system: Pseudomonas aeruginosa; test: Antibacterial activity against ciprofloxacin -susceptible Pseudomonas aeruginosa by broth microdilution method
[26] = system: Pseudomonas aeruginosa; test: Antibacterial activity against cephalosporin-resistant Pseudomonas aeruginosa clinical isolates
[27] = system: Pseudomonas aeruginosa; test: Antibacterial activity against meropenem-resistant Pseudomonas aeruginosa by broth microdilution method
[28] = system: Pseudomonas aeruginosa; test: Antibacterial activity against imipenem-resistant Pseudomonas aeruginosa by broth microdilution method
[29] = system: Pseudomonas aeruginosa; test: Antibacterial activity against Pseudomonas aeruginosa by broth microdilution method
[30] = system: Pseudomonas aeruginosa; test: Antibacterial activity against tobramycin-resistant Pseudomonas aeruginosa by broth microdilution method
[31] = system: Pseudomonas aeruginosa; test: Antibacterial activity against ticarcillin-susceptible Pseudomonas aeruginosa by broth microdilution method
[32] = system: Pseudomonas aeruginosa; test: Antibacterial activity against Pseudomonas aeruginosa harboring low level of beta lactamase AmpC by broth microdilution method
[33] = system: Pseudomonas aeruginosa; test: Antibacterial activity against Pseudomonas aeruginosa isolated from non-intensive care unit patient by broth microdilution method
[34] = system: Pseudomonas aeruginosa; test: Antibacterial activity against piperacillin- and tazobactam-resistant Pseudomonas aeruginosa by broth microdilution method
[35] = system: Pseudomonas aeruginosa; test: Antibacterial activity against aztreonam-resistant Pseudomonas aeruginosa by broth microdilution method
[36] = system: Pseudomonas aeruginosa; test: Antibacterial activity against Pseudomonas aeruginosa harboring high level of beta lactamase AmpC by broth microdilution method
[37] = system: Pseudomonas aeruginosa; test: Antibacterial activity against ticarcillin-resistant Pseudomonas aeruginosa by broth microdilution method
[38] = system: Pseudomonas aeruginosa; test: Antibacterial activity against cefepime-resistant Pseudomonas aeruginosa by broth microdilution method
[39] = system: Pseudomonas aeruginosa; test: Antibacterial activity against cefepime-susceptible Pseudomonas aeruginosa by broth microdilution method
[40] = system: Pseudomonas aeruginosa; test: Antibacterial activity against aztreonam-susceptible Pseudomonas aeruginosa by broth microdilution method
[41] = system: Pseudomonas aeruginosa; test: Antibacterial activity against tobramycin-susceptible Pseudomonas aeruginosa by broth microdilution method
[42] = system: Pseudomonas aeruginosa; test: Antibacterial activity against piperacillin- and tazobactam-susceptible Pseudomonas aeruginosa by broth microdilution method
[43] = system: Pseudomonas aeruginosa; test: Antibacterial activity against ciprofloxacin-resistant Pseudomonas aeruginosa by broth microdilution method
[44] = system: Pseudomonas aeruginosa; test: Antibacterial activity against ceftazidime-resistant Pseudomonas aeruginosa by broth microdilution method
[45] = system: Pseudomonas aeruginosa; test: Antibacterial activity against amikacin-resistant Pseudomonas aeruginosa by broth microdilution method
[46] = system: Pseudomonas aeruginosa; test: Antibacterial activity against piperacillin-resistant Pseudomonas aeruginosa by broth microdilution method
[47] = system: Pseudomonas aeruginosa; test: Antibacterial activity against Pseudomonas aeruginosa isolated from intensive care unit patient by broth microdilution method
[48] = system: Pseudomonas aeruginosa; test: Antibacterial activity against amikacin-susceptible Pseudomonas aeruginosa by broth microdilution method

## CO/N=C(\C(=O)N[C@@H]1C(=O)N2C(C(=O)[O-])=C(C[N+]3(C)CCCC3)CS[C@H]12)c1csc(N)n1
[1]
  MIC: 4 µg/mL (≈ 8.32 µM)
[2]
  MIC: 16 µg/mL (≈ 33.3 µM)
[3]
  Activity: 68.2%
[4]
  MIC: 2 µg/mL (≈ 4.16 µM)
[5]
  MIC: 32 µg/mL (≈ 66.6 µM)
[6]
  MIC: 64 µg/mL (≈ 133 µM)
[7]
  MIC: 8 µg/mL (≈ 16.6 µM)
[8]
  MIC: > 64 µg/mL
[9]
  MIC: 32 µg/mL (≈ 66.6 µM)
[10]
  MIC: 4 µg/mL (≈ 8.32 µM)
[11]
  MIC: 16 µg/mL (≈ 33.3 µM)
[12]
  MIC: > 64 µg/mL
[13]
  MIC: > 64 µg/mL
[14]
  MIC: 1 µg/mL (≈ 2.08 µM)

## NCC[C@H](O)C(=O)N[C@@H]1C[C@H](N)[C@@H](O[C@H]2O[C@H](CN)[C@@H](O)[C@H](O)[C@H]2O)[C@H](O)[C@H]1O[C@H]1O[C@H](CO)[C@@H](O)[C@H](N)[C@H]1O [AMIKACIN]
[1]
  MIC: 4 µg/mL (≈ 6.83 µM)
[2]
  MIC: 16 µg/mL (≈ 27.3 µM)
[3]
  Activity: 18.6%
[5]
  MIC: 32 µg/mL (≈ 54.6 µM)
[6]
  MIC: 2 µg/mL (≈ 3.42 µM)
[8]
  MIC: 32 µg/mL (≈ 54.6 µM)
[15]
  MIC: 1 µg/mL (≈ 1.71 µM)
[9]
  MIC: 8 µg/mL (≈ 13.7 µM)
[10]
  MIC: 4 µg/mL (≈ 6.83 µM)
[11]
  MIC: 16 µg/mL (≈ 27.3 µM)
[12]
  MIC: 32 µg/mL (≈ 54.6 µM)
[13]
  MIC: 32 µg/mL (≈ 54.6 µM)

## CC(C)(O/N=C(\C(=O)N[C@@H]1C(=O)N2C(C(=O)[O-])=C(C[n+]3ccccc3)CS[C@H]12)c1csc(N)n1)C(=O)O [CEFTAZIDIME]
[1]
  MIC: 32 µg/mL (≈ 58.5 µM)
[2]
  MIC: 16 µg/mL (≈ 29.3 µM)
[3]
  Activity: 46.2%
[4]
  MIC: 4 µg/mL (≈ 7.32 µM)
[5]
  MIC: > 64 µg/mL
[6]
  MIC: > 64 µg/mL
[7]
  MIC: > 64 µg/mL
[8]
  MIC: 64 µg/mL (≈ 117 µM)
[15]
  MIC: > 64 µg/mL
[9]
  MIC: > 64 µg/mL
[10]
  MIC: 32 µg/mL (≈ 58.5 µM)
[11]
  MIC: > 64 µg/mL
[12]
  MIC: > 64 µg/mL
[13]
  MIC: > 64 µg/mL
[14]
  MIC: 1 µg/mL (≈ 1.83 µM)

## Cn1c(N)c(NC(=O)NCCN)c[n+]1CC1=C(C(=O)O)N2C(=O)[C@@H](NC(=O)/C(=N\OC(C)(C)C(=O)[O-])c3nsc(N)n3)[C@H]2SC1 [CEFTOLOZANE]
[16]
  MIC50: 1 µg/mL (≈ 1.5 µM)
  MIC90: 2 µg/mL (≈ 3 µM)
[1]
  MIC: 32 µg/mL (≈ 48 µM)
[17]
  MIC50: 1 µg/mL (≈ 1.5 µM)
  MIC90: 2 µg/mL (≈ 3 µM)
[2]
  MIC: 64 µg/mL (≈ 96 µM)
[18]
  MIC50: 1 µg/mL (≈ 1.5 µM)
  MIC90: 4 µg/mL (≈ 6 µM)
[19]
  MIC: > 8 µg/mL
[20]
  MIC50: 1 µg/mL (≈ 1.5 µM)
  MIC90: 2 µg/mL (≈ 3 µM)
[21]
  MIC50: 1 µg/mL (≈ 1.5 µM)
  MIC90: 2 µg/mL (≈ 3 µM)
[4]
  MIC: 0.5 µg/mL (≈ 0.75 µM)
[22]
  MIC50: 1 µg/mL (≈ 1.5 µM)
  MIC90: 4 µg/mL (≈ 6 µM)
[23]
  MIC50: 1 µg/mL (≈ 1.5 µM)
  MIC90: 4 µg/mL (≈ 6 µM)
[24]
  MIC50: 1 µg/mL (≈ 1.5 µM)
  MIC90: 2 µg/mL (≈ 3 µM)
[5]
  MIC: 64 µg/mL (≈ 96 µM)
[25]
  MIC50: 1 µg/mL (≈ 1.5 µM)
  MIC90: 2 µg/mL (≈ 3 µM)
[26]
  MIC50: 0.51 µg/mL (≈ 0.765 µM)
  MIC90: 1 µg/mL (≈ 1.5 µM)
[27]
  MIC50: 1 µg/mL (≈ 1.5 µM)
  MIC90: 4 µg/mL (≈ 6 µM)
[6]
  MIC: 64 µg/mL (≈ 96 µM)
[28]
  MIC50: 1 µg/mL (≈ 1.5 µM)
  MIC90: 4 µg/mL (≈ 6 µM)
[7]
  MIC: 32 µg/mL (≈ 48 µM)
[29]
  MIC50: 1 µg/mL (≈ 1.5 µM)
  MIC90: 4 µg/mL (≈ 6 µM)
[30]
  MIC50: 1 µg/mL (≈ 1.5 µM)
  MIC90: 4 µg/mL (≈ 6 µM)
[8]
  MIC: 32 µg/mL (≈ 48 µM)
[15]
  MIC: 64 µg/mL (≈ 96 µM)
[31]
  MIC50: 1 µg/mL (≈ 1.5 µM)
  MIC90: 2 µg/mL (≈ 3 µM)
[32]
  MIC50: 1 µg/mL (≈ 1.5 µM)
  MIC90: 2 µg/mL (≈ 3 µM)
[33]
  MIC50: 1 µg/mL (≈ 1.5 µM)
  MIC90: 2 µg/mL (≈ 3 µM)
[9]
  MIC: 32 µg/mL (≈ 48 µM)
[34]
  MIC50: 1 µg/mL
  MIC90: 4 µg/mL
[35]
  MIC50: 1 µg/mL (≈ 1.5 µM)
  MIC90: 4 µg/mL (≈ 6 µM)
[36]
  MIC50: 1 µg/mL (≈ 1.5 µM)
  MIC90: 4 µg/mL (≈ 6 µM)
[10]
  MIC: 32 µg/mL (≈ 48 µM)
[37]
  MIC50: 1 µg/mL (≈ 1.5 µM)
  MIC90: 8 µg/mL (≈ 12 µM)
[11]
  MIC: 32 µg/mL (≈ 48 µM)
[38]
  MIC50: 1 µg/mL (≈ 1.5 µM)
  MIC90: 4 µg/mL (≈ 6 µM)
[12]
  MIC: 64 µg/mL (≈ 96 µM)
[39]
  MIC50: 0.5 µg/mL (≈ 0.75 µM)
  MIC90: 2 µg/mL (≈ 3 µM)
[40]
  MIC50: 1 µg/mL (≈ 1.5 µM)
  MIC90: 2 µg/mL (≈ 3 µM)
[41]
  MIC50: 1 µg/mL (≈ 1.5 µM)
  MIC90: 2 µg/mL (≈ 3 µM)
[42]
  MIC50: 1 µg/mL
  MIC90: 2 µg/mL
[43]
  MIC50: 1 µg/mL (≈ 1.5 µM)
  MIC90: 4 µg/mL (≈ 6 µM)
[44]
  MIC50: 1 µg/mL (≈ 1.5 µM)
  MIC90: 4 µg/mL (≈ 6 µM)
[45]
  MIC50: 1 µg/mL (≈ 1.5 µM)
  MIC90: 64 µg/mL (≈ 96 µM)
[46]
  MIC50: 1 µg/mL (≈ 1.5 µM)
  MIC90: 8 µg/mL (≈ 12 µM)
[47]
  MIC50: 1 µg/mL (≈ 1.5 µM)
  MIC90: 4 µg/mL (≈ 6 µM)
[13]
  MIC: 64 µg/mL (≈ 96 µM)
[48]
  MIC50: 1 µg/mL (≈ 1.5 µM)
  MIC90: 2 µg/mL (≈ 3 µM)
[14]
  MIC: 0.25 µg/mL (≈ 0.375 µM)

## O=C(O)c1cn(C2CC2)c2cc(N3CCNCC3)c(F)cc2c1=O [CIPROFLOXACIN]
[5]
  MIC: 16 µg/mL (≈ 48.3 µM)
[8]
  MIC: 1 µg/mL (≈ 3.02 µM)
[12]
  MIC: 4 µg/mL (≈ 12.1 µM)
[13]
  MIC: 4 µg/mL (≈ 12.1 µM)
